In the supplement of paper PMC10307832:

Experiments:
Assay in all cases: relative viability (nuclei count vs DMSO), 5 days (fraction); higher = more cells survive
[1] = tested on: SW 900
Summary of the method: (§1)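 Dosing by pin tool came one day after lung cancer cell lines were seeded in 1536-well plates, using either one drug or a fixed anchor-drug dose plus five library-drug doses (not always all listed) in √10 steps. After 5 days, nuclei were counted on 4× images. Relative viability is treated-well nuclei count divided by vehicle-well nuclei count, and values are medians of duplicate plates.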

[2] = tested on: NCI-H441
Summary of the method: as §1

[3] = tested on: NCI-H1944
Summary of the method: as §1

[4] = tested on: NCI-H2126
Summary of the method: as §1

[5] = tested on: NCI-H322M
Summary of the method: as §1

[6] = tested on: NCI-H1666
Summary of the method: as §1

[7] = tested on: NCI-H2228
Summary of the method: as §1

[8] = tested on: COR-L23
Summary of the method: as §1

[9] = tested on: EPLC-272H
Summary of the method: as §1

[10] = tested on: NCI-H2087
Summary of the method: as §1

[11] = tested on: SW 1573
Summary of the method: as §1

[12] = tested on: NCI-H2023
Summary of the method: as §1

[13] = tested on: PC-14
Summary of the method: as §1

[14] = tested on: ChaGo-K-1
Summary of the method: as §1

[15] = tested on: NCI-H460
Summary of the method: as §1

[16] = tested on: HOP-62
Summary of the method: as §1

[17] = tested on: NCI-H1355
Summary of the method: as §1

[18] = tested on: EMC-BAC-2
Summary of the method: as §1

[19] = tested on: LCLC-103H
Summary of the method: as §1

[20] = tested on: NCI-H3122
Summary of the method: as §1

[21] = tested on: NCI-H596
Summary of the method: as §1

[22] = tested on: NCI-H2405
Summary of the method: as §1

[23] = tested on: NCI-H1975
Summary of the method: as §1

[24] = tested on: LK-2
Summary of the method: as §1

## Nc1cccc2c1CN(C1CCC(=O)NC1=O)C2=O (configuration not stated) [Lenalidomide] + COc1cc2c(Oc3ccc(NC(=O)C4(C(=O)Nc5ccc(F)cc5)CC4)cc3F)ccnc2cc1OCCCN1CCOCC1 [Foretinib] (partner 0.25 µM)
[1]; first compound 0.253 µM
  relative viability: 0.785
[1]; first compound 2.53 µM
  relative viability: 0.879
[1]; first compound 8 µM
  relative viability: 0.884
[2]; first compound 0.253 µM
  relative viability: 1
[2]; first compound 0.8 µM
  relative viability: 0.722
[2]; first compound 2.53 µM
  relative viability: 1.16
[2]; first compound 8 µM
  relative viability: 0.795
[3]; first compound 0.253 µM
  relative viability: 0.871
[3]; first compound 0.8 µM
  relative viability: 0.905
[3]; first compound 2.53 µM
  relative viability: 0.911
[3]; first compound 8 µM
  relative viability: 0.848
[4]; first compound 0.253 µM
  relative viability: 1.33
[4]; first compound 0.8 µM
  relative viability: 1.13
[4]; first compound 2.53 µM
  relative viability: 1.39
[4]; first compound 8 µM
  relative viability: 1.14
[5]; first compound 0.253 µM
  relative viability: 0.962
[5]; first compound 0.8 µM
  relative viability: 1.05
[5]; first compound 2.53 µM
  relative viability: 1.11
[5]; first compound 8 µM
  relative viability: 0.902
[6]; first compound 0.253 µM
  relative viability: 1
[6]; first compound 2.53 µM
  relative viability: 1
[6]; first compound 8 µM
  relative viability: 0.983
[7]; first compound 0.253 µM
  relative viability: 0.943
[7]; first compound 0.8 µM
  relative viability: 0.907
[7]; first compound 2.53 µM
  relative viability: 1.04
[7]; first compound 8 µM
  relative viability: 0.975
[8]; first compound 0.253 µM
  relative viability: 0.897
[8]; first compound 0.8 µM
  relative viability: 0.998
[8]; first compound 2.53 µM
  relative viability: 1.08
[8]; first compound 8 µM
  relative viability: 1.15
[9]; first compound 0.253 µM
  relative viability: 0.795
[9]; first compound 0.8 µM
  relative viability: 0.658
[9]; first compound 2.53 µM
  relative viability: 0.681
[9]; first compound 8 µM
  relative viability: 0.549
[10]; first compound 0.253 µM
  relative viability: 0.801
[10]; first compound 0.8 µM
  relative viability: 1.17
[10]; first compound 2.53 µM
  relative viability: 1.17
[10]; first compound 8 µM
  relative viability: 1.28
[11]; first compound 0.253 µM
  relative viability: 0.971
[11]; first compound 0.8 µM
  relative viability: 1.15
[11]; first compound 2.53 µM
  relative viability: 0.95
[11]; first compound 8 µM
  relative viability: 0.877
[12]; first compound 0.253 µM
  relative viability: 0.89
[12]; first compound 0.8 µM
  relative viability: 1.19
[12]; first compound 2.53 µM
  relative viability: 0.753
[12]; first compound 8 µM
  relative viability: 0.931
[13]; first compound 0.253 µM
  relative viability: 0.945
[13]; first compound 0.8 µM
  relative viability: 1.02
[13]; first compound 2.53 µM
  relative viability: 1.01
[13]; first compound 8 µM
  relative viability: 0.982
[14]; first compound 0.253 µM
  relative viability: 0.949
[14]; first compound 0.8 µM
  relative viability: 0.873
[14]; first compound 2.53 µM
  relative viability: 0.975
[14]; first compound 8 µM
  relative viability: 1.06
[15]; first compound 0.253 µM
  relative viability: 0.964
[15]; first compound 0.8 µM
  relative viability: 1.02
[15]; first compound 2.53 µM
  relative viability: 1.14
[15]; first compound 8 µM
  relative viability: 1.07
[16]; first compound 0.253 µM
  relative viability: 0.989
[16]; first compound 0.8 µM
  relative viability: 1.03
[16]; first compound 2.53 µM
  relative viability: 1.28
[16]; first compound 8 µM
  relative viability: 1.2
[17]; first compound 0.253 µM
  relative viability: 0.973
[17]; first compound 2.53 µM
  relative viability: 0.901
[17]; first compound 8 µM
  relative viability: 0.808
[18]; first compound 0.253 µM
  relative viability: 1
[18]; first compound 0.8 µM
  relative viability: 0.967
[18]; first compound 2.53 µM
  relative viability: 1.04
[18]; first compound 8 µM
  relative viability: 0.885
[19]; first compound 0.253 µM
  relative viability: 0.761
[19]; first compound 0.8 µM
  relative viability: 0.806
[19]; first compound 2.53 µM
  relative viability: 0.888
[19]; first compound 8 µM
  relative viability: 0.682
[20]; first compound 0.253 µM
  relative viability: 0.98
[20]; first compound 0.8 µM
  relative viability: 1.04
[20]; first compound 2.53 µM
  relative viability: 0.915
[20]; first compound 8 µM
  relative viability: 1.02
[21]; first compound 0.253 µM
  relative viability: 0.799
[21]; first compound 2.53 µM
  relative viability: 0.908
[21]; first compound 8 µM
  relative viability: 0.789
[22]; first compound 0.253 µM
  relative viability: 1.02
[22]; first compound 0.8 µM
  relative viability: 0.951
[22]; first compound 2.53 µM
  relative viability: 1.11
[22]; first compound 8 µM
  relative viability: 1.01
[23]; first compound 0.253 µM
  relative viability: 0.942
[23]; first compound 0.8 µM
  relative viability: 0.823
[23]; first compound 2.53 µM
  relative viability: 1.07
[23]; first compound 8 µM
  relative viability: 1.14
[24]; first compound 0.253 µM
  relative viability: 1.57
[24]; first compound 0.8 µM
  relative viability: 1.17
[24]; first compound 2.53 µM
  relative viability: 1.24
[24]; first compound 8 µM
  relative viability: 0.847
